15 molecules from patent US20250145665A1, “MACROCYCLIC PEPTIDES USEFUL AS MODULATORS OF TNF ALPHA” (Bristol-Myers Squibb Company, priority 2023, published 2025) can be followed below.

Molecules are shown by their SMILES. Starred links: 1 amine or outer side, 2 acyl side, 3 side chain; linkers in the order of their positions; H or OH if unused. Positions of bridges follow the written chain, without caps; N, C: chain ends. Non-standard residues stand in square brackets, D forms with d. Residues, ends and D or L forms follow the SMILES beside them. ξ: configuration not given here. Bip(4'-COOH) = N[C@@H](Cc1ccc(-c2ccc(C(=O)O)cc2)cc1)C(=O)O; Bip(4'-NHAc) = CC(=O)Nc1ccc(-c2ccc(C[C@H](N)C(=O)O)cc2)cc1; Phe(3-CH2NH2) = O=C([C@H](Cc1cccc(CN[*:3])c1)N[*:1])[*:2]; Ala(morpholin-4-yl) = N[C@@H](CN1CCOCC1)C(=O)O; Phe(3-CONH2) = NC(=O)c1cccc(C[C@H](N)C(=O)O)c1; Bip = N[C@@H](Cc1ccc(-c2ccccc2)cc1)C(=O)O; Phe(3-OMe) = COc1cccc(C[C@H](N)C(=O)O)c1; Ala(2-furyl) = N[C@@H](Cc1ccco1)C(=O)O; 2Pal = N[C@@H](Cc1ccccn1)C(=O)O; 2Thi = N[C@@H](Cc1cccs1)C(=O)O; Cha = N[C@@H](CC1CCCCC1)C(=O)O; Tle = CC(C)(C)[C@H](N)C(=O)O; ξIle = CC[C@H](C)C(N)C(=O)O; Aze = O=C(O)[C@@H]1CCN1; Sar = CNCC(=O)O

This assay deals with TNFα (Homo sapiens, UniProt P01375). The assay can be described thus: TNF-Induced HEK-Blue Assay. To be noted: HEK-Blue-CD40L cells, NF-kB-driven secreted alkaline phosphatase reporter; TNFα 0.5 ng/ml; 18 h; read-out: TNF induced HEK-Blue assay IC50 value. The format is cell-based.
Sequence of TNFα (P01375 77-233 limits assumed): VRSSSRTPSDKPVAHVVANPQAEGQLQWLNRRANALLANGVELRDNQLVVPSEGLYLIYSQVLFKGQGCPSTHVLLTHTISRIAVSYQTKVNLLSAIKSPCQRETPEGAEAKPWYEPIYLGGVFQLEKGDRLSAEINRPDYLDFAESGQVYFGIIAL
Broadly, the IC50 is the concentration that inhibits the measured activity by half. Consider `CC[C@H](C)[C@@H]1NC(=O)[C@@H](CCCNC(=N)N)NC(=O)[C@H](CC(=O)O)NC(=O)[C@H](Cc2cnc[nH]2)NC(=O)CN(C)C(=O)[C@H](Cc2ccc(-c3ccc(NC(C)=O)cc3)cc2)NC(=O)[C@H](Cc2ccc(-c3ccc(C(=O)O)cc3)cc2)NC(=O)[C@H](CC2CCCCC2)NC(=O)CSC[C@@H](C(=O)NCC(N)=O)NC(=O)[C@H](CC(C)C)NC(=O)[C@H](Cc2cccc(OC)c2)NC(=O)[C@H](C(C)C)NC(=O)[C@@H]2CCCN2C1=O` [Example 282] ({CH2CO}-[Cha][Bip(4'-COOH)][Bip(4'-NHAc)][Sar]HD[dR]IPV[Phe(3-OMe)]LCG-NH2; thioether N-13), for which the IC50 was 50 to 200 nM.
Take `CC(=O)Nc1ccc(-c2ccc(C[C@@H]3NC(=O)[C@H](Cc4ccc(-c5ccccc5)cc4)NC(=O)[C@H](CC4CCCCC4)NC(=O)CSC[C@@H](C(=O)NCC(N)=O)NC(=O)[C@H](CC(C)C)NC(=O)[C@H](Cc4cccc(CN)c4)NC(=O)[C@H](C(C)C)NC(=O)[C@@H]4CCCN4C(=O)[C@H](C(C)C)NC(=O)[C@@H](CCCNC(=N)N)NC(=O)[C@H](CC(=O)O)NC(=O)[C@H](Cc4ccc(O)cc4)NC(=O)CN(C)C3=O)cc2)cc1` [Example 283] ({CH2CO}-[Cha][Bip][Bip(4'-NHAc)][Sar]YD[dR]VPV[Phe(3-CH2NH2)]LCG-NH2; thioether N-13): the 50% inhibitory concentration (IC50) is less than 50 nM.
On to `CC[C@H](C)[C@@H]1NC(=O)[C@@H]2CCCN2C(=O)[C@H]([C@@H](C)CC)NC(=O)[C@@H](CCCNC(=N)N)NC(=O)[C@H](CC(=O)O)NC(=O)[C@H](Cc2ccccc2)NC(=O)CN(C)C(=O)[C@H](Cc2ccc(-c3ccc(NC(C)=O)cc3)cc2)NC(=O)[C@H](Cc2ccc(-c3ccc(C(=O)O)cc3)cc2)NC(=O)[C@H](CN2CCOCC2)NC(=O)CSC[C@@H](C(=O)NCC(N)=O)NC(=O)[C@H](CC(C)C)NC(=O)[C@H](Cc2cnc[nH]2)NC1=O` [Example 284] ({CH2CO}-[Ala(morpholin-4-yl)][Bip(4'-COOH)][Bip(4'-NHAc)][Sar]FD[dR]IPIHLCG-NH2; thioether N-13), for which the IC50 was in the range of 50 to 200 nM.
On to `CC[C@H](C)[C@@H]1NC(=O)[C@@H]2CCCN2C(=O)[C@H]([C@@H](C)CC)NC(=O)[C@@H](CCCNC(=N)N)NC(=O)[C@H](CC(=O)O)NC(=O)[C@H](Cc2ccccn2)NC(=O)CN(C)C(=O)[C@H](Cc2ccc(-c3ccc(NC(C)=O)cc3)cc2)NC(=O)[C@H](Cc2ccc(-c3ccccc3)cc2)NC(=O)[C@H](CC2CCCCC2)NC(=O)CSC[C@@H](C(=O)NCC(N)=O)NC(=O)[C@H](CC(C)C)NC(=O)[C@H](Cc2cccc(C(N)=O)c2)NC1=O` [Example 285] ({CH2CO}-[Cha][Bip][Bip(4'-NHAc)][Sar][2Pal]D[dR]IPI[Phe(3-CONH2)]LCG-NH2; thioether N-13), for which the concentration for half-maximal inhibition (IC50) was less than 50 nM.
As to `CC[C@H](C)[C@@H]1NC(=O)[C@@H]2CCCN2C(=O)[C@H]([C@@H](C)CC)NC(=O)[C@@H](CCCNC(=N)N)NC(=O)[C@H](CC(=O)O)NC(=O)[C@@H]2CCCN2C(=O)CN(C)C(=O)[C@H](Cc2ccc(-c3ccc(NC(C)=O)cc3)cc2)NC(=O)[C@H](Cc2ccc(-c3ccc(C(=O)O)cc3)cc2)NC(=O)[C@H](CC2CCCCC2)NC(=O)CSC[C@@H](C(=O)NCC(N)=O)NC(=O)[C@H](CC(C)C)NC(=O)[C@H](Cc2ccc(O)cc2)NC1=O` [Example 286] ({CH2CO}-[Cha][Bip(4'-COOH)][Bip(4'-NHAc)][Sar]PD[dR]IPIYLCG-NH2; thioether N-13), the IC50 lay within 50 to 200 nM.
Regarding `CC(=O)Nc1ccc(-c2ccc(C[C@@H]3NC(=O)[C@H](Cc4ccc(-c5ccc(C(=O)O)cc5)cc4)NC(=O)[C@H](CN4CCOCC4)NC(=O)CSC[C@@H](C(=O)NCC(N)=O)NC(=O)[C@H](CC(C)C)NC(=O)[C@H](Cc4ccccc4)NC(=O)[C@H](C(C)C)NC(=O)[C@@H]4CCCN4C(=O)[C@H](C(C)C)NC(=O)[C@@H](CCCNC(=N)N)NC(=O)[C@H](CC(=O)O)NC(=O)[C@H](Cc4ccc(O)cc4)NC(=O)CN(C)C3=O)cc2)cc1` [Example 287] ({CH2CO}-[Ala(morpholin-4-yl)][Bip(4'-COOH)][Bip(4'-NHAc)][Sar]YD[dR]VPVFLCG-NH2; thioether N-13), the concentration for half-maximal inhibition (IC50) is less than 50 nM.
Under `CC(=O)Nc1ccc(-c2ccc(C[C@@H]3NC(=O)[C@H](Cc4ccc(-c5ccccc5)cc4)NC(=O)[C@H](CC4CCCCC4)NC(=O)CSC[C@@H](C(=O)NCC(N)=O)NC(=O)[C@H](CC(C)C)NC(=O)[C@H](Cc4ccco4)NC(=O)[C@H](C(C)C)NC(=O)[C@@H]4CCCN4C(=O)[C@H](C(C)C)NC(=O)[C@@H](CCCNC(=N)N)NC(=O)[C@H](CC(=O)O)NC(=O)[C@@H]4CCCN4C(=O)CN(C)C3=O)cc2)cc1` [Example 288] ({CH2CO}-[Cha][Bip][Bip(4'-NHAc)][Sar]PD[dR]VPV[Ala(2-furyl)]LCG-NH2; thioether N-13) stands 200 to 2000 nM.
As for `CC(=O)Nc1ccc(-c2ccc(C[C@@H]3NC(=O)[C@H](Cc4ccc(-c5ccccc5)cc4)NC(=O)[C@H](CC4CCCCC4)NC(=O)CSC[C@@H](C(=O)NCC(N)=O)NC(=O)[C@H](CC(C)C)NC(=O)[C@H](Cc4cccs4)NC(=O)[C@H](C(C)C)NC(=O)[C@@H]4CCCN4C(=O)[C@H](C(C)C)NC(=O)[C@@H](CCCNC(=N)N)NC(=O)[C@H](CC(=O)O)NC(=O)[C@@H]4CCCN4C(=O)CN(C)C3=O)cc2)cc1` [Example 289] ({CH2CO}-[Cha][Bip][Bip(4'-NHAc)][Sar]PD[dR]VPV[2Thi]LCG-NH2; thioether N-13), the IC50 is 50 to 200 nM.
As to `CC[C@H](C)C1NC(=O)[C@@H]2CCCN2C(=O)[C@H]([C@@H](C)CC)NC(=O)[C@@H](CCCNC(=N)N)NC(=O)[C@H](CC(=O)O)NC(=O)[C@H](Cc2ccccn2)NC(=O)CN(C)C(=O)[C@H](Cc2ccc(-c3ccc(NC(C)=O)cc3)cc2)NC(=O)[C@H](Cc2ccc(-c3ccccc3)cc2)NC(=O)[C@H](CC2CCCCC2)NC(=O)CSC[C@@H](C(=O)NCC(N)=O)NC(=O)[C@H](CC(C)C)NC(=O)[C@H](CCCNC(=N)N)NC1=O` (stereo partly drawn) [Example 290] ({CH2CO}-[Cha][Bip][Bip(4'-NHAc)][Sar][2Pal]D[dR]IP[ξIle]RLCG-NH2; thioether N-13), the concentration for half-maximal inhibition (IC50) was 50 to 200 nM.
`CC[C@H](C)C1NC(=O)[C@@H]2CCCN2C(=O)[C@H]([C@@H](C)CC)NC(=O)[C@@H](CCCNC(=N)N)NC(=O)[C@H](CC(=O)O)NC(=O)[C@H](Cc2ccccn2)NC(=O)CN(C)C(=O)[C@H](Cc2ccc(-c3ccc(NC(C)=O)cc3)cc2)NC(=O)[C@H](Cc2ccc(-c3ccc(C(=O)O)cc3)cc2)NC(=O)[C@H](CC2CCCCC2)NC(=O)CSC[C@@H](C(=O)NCC(N)=O)NC(=O)[C@H](CC(C)C)NC(=O)[C@H](CCCNC(=N)N)NC1=O` (stereo partly drawn) [Example 291] ({CH2CO}-[Cha][Bip(4'-COOH)][Bip(4'-NHAc)][Sar][2Pal]D[dR]IP[ξIle]RLCG-NH2; thioether N-13): the IC50 is less than 50 nM.
As to `CC[C@H](C)[C@@H]1NC(=O)[C@@H]2CCCN2C(=O)[C@H]([C@@H](C)CC)NC(=O)[C@@H](CCCNC(=N)N)NC(=O)[C@H](CC(=O)O)NC(=O)[C@H](Cc2cnc[nH]2)NC(=O)CN(C)C(=O)[C@H](Cc2ccc(-c3ccc(NC(C)=O)cc3)cc2)NC(=O)[C@H](Cc2ccc(-c3ccc(C(=O)O)cc3)cc2)NC(=O)[C@H](CN2CCOCC2)NC(=O)CSC[C@@H](C(=O)NCC(N)=O)NC(=O)[C@H](CC(C)C)NC(=O)[C@H](Cc2cnc[nH]2)NC1=O` [Example 292] ({CH2CO}-[Ala(morpholin-4-yl)][Bip(4'-COOH)][Bip(4'-NHAc)][Sar]HD[dR]IPIHLCG-NH2; thioether N-13), the IC50 is less than 50 nM.
On to `CC[C@H](C)[C@@H]1NC(=O)[C@@H]2CCCN2C(=O)[C@H]([C@@H](C)CC)NC(=O)[C@@H](CCCNC(=N)N)NC(=O)[C@H](CC(=O)O)NC(=O)[C@H](Cc2ccc(O)cc2)NC(=O)CN(C)C(=O)[C@H](Cc2ccc(-c3ccc(NC(C)=O)cc3)cc2)NC(=O)[C@H](Cc2ccc(-c3ccccc3)cc2)NC(=O)[C@H](CN2CCOCC2)NC(=O)CSC[C@@H](C(=O)NCC(N)=O)NC(=O)[C@H](CC(C)C)NC(=O)[C@H](Cc2cccs2)NC1=O` [Example 293] ({CH2CO}-[Ala(morpholin-4-yl)][Bip][Bip(4'-NHAc)][Sar]YD[dR]IPI[2Thi]LCG-NH2; thioether N-13), for which the IC50 is less than 50 nM.
For the molecule `CC[C@H](C)[C@@H]1NC(=O)[C@@H]2CCN2C(=O)[C@H]([C@@H](C)CC)NC(=O)[C@@H](CCCNC(=N)N)NC(=O)[C@H](CC(=O)O)NC(=O)[C@H](Cc2ccc(O)cc2)NC(=O)CN(C)C(=O)[C@H](Cc2ccc(-c3ccc(NC(C)=O)cc3)cc2)NC(=O)[C@H](Cc2ccc(-c3ccccc3)cc2)NC(=O)[C@H](C(C)(C)C)NC(=O)CSC[C@@H](C(=O)NCC(N)=O)NC(=O)[C@H](CC(C)C)NC(=O)[C@H](Cc2ccc(O)cc2)NC1=O` [Example 294] ({CH2CO}-[Tle][Bip][Bip(4'-NHAc)][Sar]YD[dR]I[Aze]IYLCG-NH2; thioether N-13), the half-maximal inhibitory concentration (IC50) was less than 50 nM.
Consider `CC[C@H](C)[C@@H]1NC(=O)[C@@H]2CCCN2C(=O)[C@H]([C@@H](C)CC)NC(=O)[C@@H](CCCNC(=N)N)NC(=O)[C@H](CC(=O)O)NC(=O)[C@H](Cc2ccccc2)NC(=O)CN(C)C(=O)[C@H](Cc2ccc(-c3ccc(NC(C)=O)cc3)cc2)NC(=O)[C@H](Cc2ccc(-c3ccc(C(=O)O)cc3)cc2)NC(=O)[C@H](C(C)(C)C)NC(=O)CSC[C@@H](C(=O)NCC(N)=O)NC(=O)[C@H](CC(C)C)NC(=O)[C@H](Cc2cnc[nH]2)NC1=O` [Example 295] ({CH2CO}-[Tle][Bip(4'-COOH)][Bip(4'-NHAc)][Sar]FD[dR]IPIHLCG-NH2; thioether N-13), for which the 50% inhibitory concentration (IC50) is less than 50 nM.
Then `CC[C@H](C)[C@@H]1NC(=O)[C@@H]2CCCN2C(=O)[C@H]([C@@H](C)CC)NC(=O)[C@@H](CCCNC(=N)N)NC(=O)[C@H](CC(=O)O)NC(=O)[C@H](Cc2ccc(O)cc2)NC(=O)CN(C)C(=O)[C@H](Cc2ccc(-c3ccc(NC(C)=O)cc3)cc2)NC(=O)[C@H](Cc2ccc(-c3ccccc3)cc2)NC(=O)[C@H](C(C)(C)C)NC(=O)CSC[C@@H](C(=O)NCC(N)=O)NC(=O)[C@H](CC(C)C)NC(=O)[C@H](Cc2ccccc2)NC1=O` [Example 296] ({CH2CO}-[Tle][Bip][Bip(4'-NHAc)][Sar]YD[dR]IPIFLCG-NH2; thioether N-13), with less than 50 nM.
